Results: US9034862B2, “Compositions and methods for the treatment of cancer” (priority 2011, dated 2015)

How the values were obtained:
[1] = tested on: normal lung fibroblast MRC5; assay: MTT assay, MRC5; assay type: cell-based, human
Method: (§1) Human colon carcinoma HT29, human breast carcinoma MCF7, human bone sarcoma U2OS, human prostate carcinoma PC3, and human cervix carcinoma HeLa cells were obtained from the ATCC. A2780/CP70 cisplatin-resistant human ovarian cancer cells were kindly provided by Dr. Stephen B. Howell (Moores UCSD Cancer Center) and the human lung carcinoma cell lines A549 and normal lung fibroblast MRC5 by David E. Root (Whitehead Institute for Biomedical Research). Cells were incubated at 37° C. in 5% CO2 and grown in RPMI (HT29, A2780/CP70, and PC3) or DMEM (A549, MRC5, HeLa, MCF7, and U2OS) medium supplemented with 10% fetal bovine serum and 1% penicillin/streptomycin. Cells were passed every 3 to 4 days and restarted from a frozen stock upon reaching pass number 20.
(§2) Solutions of the platinum compounds were freshly prepared in sterile PBS before use and their concentrations quantitated by atomic absorption spectroscopy. […] The cells were then treated with 20 μL of 3-(4,5-dimethylthiazol-2-yl)-2,5-diphenyltetrazolium bromide (MTT) (5 mg/mL in PBS) and incubated for 4 h. The medium was removed, 100 μL of DMSO was added to the cells, and the absorbance of the purple formazan was recorded at 560 nm using a BioTek Synergy HT multi-detection microplate plate reader. Each condition was performed in triplicate and three independent experiments were carried out for each cell line.

[2] = tested on: human lung carcinoma A549; assay: MTT assay, A549; assay type: cell-based
Method: (§6) Solutions of the platinum compounds were freshly prepared in sterile PBS before use and their concentrations quantitated by atomic absorption spectroscopy. Cells were seeded on a 96-well plate (1200 cells per well for cancer cells and 1800 cells per well for the normal lung fibroblasts) in 100 μL RPMI or DMEM media, and incubated for 24 h. […] The cells were then treated with 20 μL of 3-(4,5-dimethylthiazol-2-yl)-2,5-diphenyltetrazolium bromide (MTT) (5 mg/mL in PBS) and incubated for 4 h. The medium was removed, 100 μL of DMSO was added to the cells, and the absorbance of the purple formazan was recorded at 560 nm using a BioTek Synergy HT multi-detection microplate plate reader. Each condition was performed in triplicate and three independent experiments were carried out for each cell line.
(§7) Human prostate carcinoma (PC3) and human cervix carcinoma (HeLa) cells were obtained from the ATCC. The human lung carcinoma cell line A549 was kindly provided by David E. Root (Whitehead Institute for Biomedical Research). Cells were incubated at 37° C. in 5% CO2 and grown in RPMI (PC3) or DMEM (A549 and HeLa) medium supplemented with 10% fetal bovine serum and 1% penicillin/streptomycin. Cells were passaged every 3 to 4 days and restarted from the frozen stock upon reaching passage number 20.
(§8) Solutions of the platinum agents were freshly prepared in sterile PBS before use and the platinum content was quantitated by AAS. Cells were seeded on 96 well plates (1200 cells per well) in 100 μL RPMI or DMEM media\ and incubated for 24 hours. […] The cells were then treated with 20 μL of 3-(4,5-dimethylthiazol-2-yl)-2,5-diphenyltetrazolium bromide (MTT) (5 mg/mL in PBS) and incubated for 4 h. The medium was removed, 100 μL of DMSO were added to the cells, and the absorbance of the purple formazan was recorded at 570 nm using a BioTek Synergy HT multi-detection microplate plate reader. For each cell line, three independent experiments were carried out in triplicate.

[3] = tested on: Human colon carcinoma HT29; assay: MTT assay, HT29; assay type: cell-based
Method: as §1, §2

[4] = tested on: human cervix carcinoma HeLa cells; assay: MTT assay, HeLa; assay type: cell-based
Method: as §6, §7, §8

human bone sarcoma U2OS = assay: MTT assay, U2OS; assay type: cell-based; details: 72-h incubation
Method: as §1, §2

[5] = tested on: Normal lung fibroblasts (MRC5) and cancerous lung (A549) cells; assay: Selective killing of cancer cells, MRC5 vs A549 (MTT); assay type: cell-based, human; details: 72 h
Method: as §2

NTera2 = assay: MTT assay, NTera2; assay type: cell-based, human; details: Table 3, NTera2 Testis, 72-h incubation
Method: as §6

[6] = tested on: GLuc expression in A549 cells; assay: Transcription assay, globally platinated pGLuc, A549; assay type: cell-based, human; details: for transcription level (normalized against unplatinated plasmid): Pt/DNA ratio of […] for phenanthriplatin
Method: (§3) Transfection of transcription probes into A549 and HT29 cells with the pGLuc plasmid was carried out using liposomal transfecting agents. Determination of expression levels was tested by Luciferase assays monitored by a luminometer (J. Am. Chem. Soc. 2010, 132, 7429-7435). A549 cells were plated in 96-well plates at 2,000 cells/well and HT29 cells were plated in 96-well plates at 6,000 cells/well. After 48 h incubation (at ˜30% confluence), cells were transfected with 50 ng of platinated plasmids in 25 μL Opti-MEM and 0.125 μL Lipofectamine 2000, and subsequently 50 μL of antibiotics-free DMEM supplemented with 10% FBS. After 2 h, the cells were washed with medium and 100 μL of fresh medium was added. The experiment was carried out in quadruplicate.
(§4) GLuc activity was monitored using a luminescence plate reader (Synergy 2, BioTek, Winooski, Vt., USA). A 10 μL volume of medium at different time points (12, 24, 36, 48, 60 h) was transferred into opaque white 96-well plates, and 25 μL of GLuc assay solution (10 μM colelenterazine (NanoLight Technologies, Pinetop, Ariz., USA) in 2.5 mM acidified methanol (100 mM HCl), buffer (10 mM Tris-HCl pH 7.8, 1 mM EDTA, 0.6 M NaCl)) was added by the automatic injector of the instrument.
(§5) In another embodiment, A549 or HT29 cells were transfected using the platinated transcription probes, and transcription levels were investigated by determining GLuc expression as measured by […] following addition of coelenterazine as a substrate for the exported enzyme. The emission intensities were normalized against unplatinated plasmids as a control. Transcription profiles were obtained by plotting normalized levels of GLuc expression against platination levels (Pt/plasmid ratio) at five different time points. […] An increase in D0 value at different time points represents restoration of transcription.

pGLuc plasmid = assay: Platination of pGLuc plasmid; assay type: biochemical
Method: The resulting mixtures were dialyzed (molecular weight cut-off 3.5 kDa) against ddH2O overnight at 4° C. with five changes of ddH2O. The rb values (bound Pt/nucleotide) were determined by UV/Vis and atomic absorption spectroscopy.
In one embodiment, the ratio of bound platinum per plasmid was determined by measuring the Pt concentration by atomic absorption spectroscopy and the DNA concentration by UV/Vis spectroscopy.

[7] = tested on: human breast carcinoma MCF7; assay: MTT assay, MCF7; assay type: cell-based; details: Table 3, MCF7 Breast, 72-h incubation
Method: as §1, §2

[8] = tested on: GLuc expression in HT29 cells; assay: Transcription assay, globally platinated pGLuc, HT29; assay type: cell-based, human; details: for transcription level (normalized against unplatinated plasmid): Pt/DNA ratio of […] for phenanthriplatin
Method: as §3, §4, §5

[9] = tested on: human prostate carcinoma PC3; assay: MTT assay, PC3; assay type: cell-based
Method: as §6, §7, §8

calf thymus DNA = assay: Ethidium bromide DNA-binding competition, Scatchard analysis; set-up: key: competitive (type A); non-competitive (type D); both (type B); No inhibition of ethidium binding is labeled as type C
Text: Using this approach, it is possible to determine whether the inhibition of ethidium binding is competitive (type A), non-competitive (type D), or both (type B). No inhibition of ethidium binding is labeled as type C.

Cc1cccnc1N.N.N.O=[N+]([O-])[O-].[Cl][Pt+] [cis-[Pt(NH3)2 (2-amino-3-methylpyridine)-Cl]NO3]
IC50 ([1]; Table 5, MRC5, 72-h incubation): 51.7 ± 7.7 µM
IC50 ([2]; Table 5, A549, 72-h incubation): 47.1 ± 1.4 µM
IC50 ([3]; Table 5, HT29, 72-h incubation): 72.9 ± 4.6 µM

N.N.O=[N+]([O-])[O-].[Cl][Pt+].c1ccc2nc3ccccc3cc2c1 [cis-[Pt(NH3)2(acridine)Cl]NO3]
IC50 ([4]; Table 5, HeLa, 72-h incubation): 2.69 ± 0.1 µM
IC50 ([1]; Table 5, MRC5, 72-h incubation): 9.17 ± 0.47 µM
IC50 ([2]; Table 5, A549, 72-h incubation): 3.74 ± 0.01 µM
IC50 (human bone sarcoma U2OS; Table 5, U2OS): 4.42 ± 0.31 µM
IC50 ([3]; Table 5, HT29, 72-h incubation): 13.5 ± 0.7 µM

O=[N+]([O-])[O-].[NH3+][Pt-2]([NH3+])([Cl])[n+]1cccc2c3ccccc3ccc21 (stereo not drawn) [cis-[Pt(NH3)2(benzo[f]quinoline)Cl]NO3]
IC50 ([4]; Table 5, HeLa, 72-h incubation): 0.64 ± 0.01 µM
IC50 ([2]; Table 5, A549, 72-h incubation): 0.83 ± 0.03 µM
IC50 (human bone sarcoma U2OS; Table 5, U2OS): 0.88 ± 0.01 µM

N.N.O=[N+]([O-])[O-].[Cl][Pt+].c1ccc2cnccc2c1 [cis-[Pt(NH3)2(isoquinoline)Cl]NO3]
IC50 ([1]; Table 5, MRC5, 72-h incubation): 26.4 ± 1 µM
IC50 ([2]; Table 5, A549, 72-h incubation): 11.5 ± 0.4 µM
IC50 ([3]; Table 5, HT29, 72-h incubation): 45.6 ± 2.7 µM

N.N.[Cl][Pt][Cl] [cisplatin]
IC50 ([4]; Table 3, HeLa Cervix, 72-h incubation): 1.77 ± 0.72 µM
IC50 ([4]; Table 5, HeLa, 72-h incubation): 1.77 ± 0.72 µM
IC50 ([4]; Table 11 (Example 3), HeLa Cervix, 72 h): 1.78 ± 0.15 µM
ratio of IC50 values in healthy MRC5 cells to those in cancerous A549 cells [5]: 0.9
IC50 (NTera2): 0.14 ± 0.03 µM
IC50 ([1]; Table 4, MRC5 normal lung fibroblast, 72 h incubation): 6.18 ± 0.16 µM
IC50 ([1]; Table 5, MRC5, 72-h incubation): 6.18 ± 0.16 µM
transcription level (normalized against unplatinated plasmid) ([6]; A549, 12 h): 25.8%
D0 (Pt lesions per plasmid required to reduce transcription levels to 37% of control) ([6]; A549, 12 h after transfection): 16.8 Pt/plasmid
D0 (Pt lesions per plasmid required to reduce transcription levels to 37% of control) ([6]; A549, 24 h after transfection): 20.0 Pt/plasmid
D0 (Pt lesions per plasmid required to reduce transcription levels to 37% of control) ([6]; A549, 36 h after transfection): 29.5 Pt/plasmid
D0 (Pt lesions per plasmid required to reduce transcription levels to 37% of control) ([6]; A549, 48 h after transfection): 36.4 Pt/plasmid
transcription level (normalized against unplatinated plasmid) ([6]; A549, 60 h): 60.2%
D0 (Pt lesions per plasmid required to reduce transcription levels to 37% of control) ([6]; A549, 60 h after transfection): 42.6 Pt/plasmid
Pt adducts per plasmid (pGLuc plasmid; rf 0.00074, 16 h at 37° C.): 4.64 Pt adducts per plasmid
rb (bound Pt/nucleotide) (pGLuc plasmid; rf 0.00074, 16 h at 37° C.): 0.0006
Pt adducts per plasmid (pGLuc plasmid; rf 0.0014, 16 h at 37° C.): 11.67 Pt adducts per plasmid
rb (bound Pt/nucleotide) (pGLuc plasmid; rf 0.0014, 16 h at 37° C.): 0.0015
Pt adducts per plasmid (pGLuc plasmid; rf 0.0028, 16 h at 37° C.): 20.65 Pt adducts per plasmid
rb (bound Pt/nucleotide) (pGLuc plasmid; rf 0.0028, 16 h at 37° C.): 0.0026
Pt adducts per plasmid (pGLuc plasmid; rf 0.0056, 16 h at 37° C.): 43.35 Pt adducts per plasmid
rb (bound Pt/nucleotide) (pGLuc plasmid; rf 0.0056, 16 h at 37° C.): 0.0054
IC50 [7]: 11.6 ± 0.6 µM
IC50 ([2]; Table 3, A549 Lung, 72-h incubation): 6.75 ± 0.38 µM
IC50 ([2]; Table 4, A549 human lung carcinoma, 72 h incubation): 6.62 ± 0.4 µM
IC50 ([2]; Table 5, A549, 72-h incubation): 6.75 ± 0.38 µM
IC50 ([2]; Table 11 (Example 3), A549 Lung, 72 h): 6.47 ± 0.74 µM
IC50 (human bone sarcoma U2OS; Table 3, U2OS Bone): 7.15 ± 0.25 µM
IC50 (human bone sarcoma U2OS; Table 5, U2OS): 7.15 ± 0.25 µM
transcription level (normalized against unplatinated plasmid) ([8]; HT29, 12 h): 15.6%
D0 (Pt lesions per plasmid required to reduce transcription levels to 37% of control) ([8]; HT29, 12 h after transfection): 9.9 Pt/plasmid
D0 (Pt lesions per plasmid required to reduce transcription levels to 37% of control) ([8]; HT29, 24 h after transfection): 14.5 Pt/plasmid
D0 (Pt lesions per plasmid required to reduce transcription levels to 37% of control) ([8]; HT29, 36 h after transfection): 19.2 Pt/plasmid
D0 (Pt lesions per plasmid required to reduce transcription levels to 37% of control) ([8]; HT29, 48 h after transfection): 22.1 Pt/plasmid
transcription level (normalized against unplatinated plasmid) ([8]; HT29, 60 h): 42.9%
D0 (Pt lesions per plasmid required to reduce transcription levels to 37% of control) ([8]; HT29, 60 h after transfection): 30.0 Pt/plasmid
IC50 ([9]; Table 3, PC3 Prostate, 72-h incubation): 4.56 ± 0.52 µM
IC50 ([9]; Table 11 (Example 3), PC3 Prostate, 72 h): 3.93 ± 0.52 µM
type of inhibition of ethidium binding (Scatchard) (calf thymus DNA; 12-h incubation period): type C
type of inhibition of ethidium binding (Scatchard) (calf thymus DNA; 1 min incubation period): type C
IC50 ([3]; Table 3, HT29 Colorectal, 72-h incubation): 15.9 ± 1.5 µM
IC50 ([3]; Table 5, HT29, 72-h incubation): 15.9 ± 1.5 µM
